Test results reported in publication PMC11325505, “Nitrogen-Containing Flavonoids—Preparation and Biological Activity” (ACS Omega, 2024).
≈ marks a conversion by molar mass, not a printed value.

Experiments:
[1] = tested on: human dermal fibroblasts (HDF); assay: Cytotoxicity (resazurin assay), fibroblasts; assay type: cell-based; settings: Homo sapiens, Fibroblast, 72 h, read-out: HDF IC50 (concentration that halved the viability)
Procedure: The cytotoxicity of the prepared derivatives was evaluated by their ability to decrease the viability of immortalized human keratinocytes (HaCaT) and human dermal fibroblasts (HDF).
100 μL of cell suspension containing 10^5 cells/mL was pipetted into a 96-well plate. After 24 h incubation, the tested compounds were added in the concentration range 12.5–200 μM. After 72 h incubation, the cell viability was tested by standard resazurin assay.[41] Briefly, the cells were washed with PBS and incubated with 100 μL of resazurin solution (0.025 mg/mL) for 2 h. The fluorescence was measured at a wavelength of 560 nm excitation/590 nm emission.

[2] = tested on: transmembrane efflux pumps; assay: Ethidium bromide accumulation assay; assay type: cell-based, S. aureus MSSA 2; settings: for efflux inhibition (ethidium bromide accumulation), in words: compared with comparator CCCP, concentrations 25–100 μM
Description: The application of antibiotics often leads to oxidative stress in bacteria, which triggers the efflux pump systems that contribute to antimicrobial resistance.[34] Therefore, modulation of the efflux system has been proposed as another plausible target of derivatives. The efflux pump inhibitor carbonyl cyanide 3-chlorophenylhydrazone (CCCP) was used as a comparator in our assay. Its action destroys the proton-motive force at the membrane so that the efflux pump cannot transport substrates out of the cell. One such universal substrate is ethidium bromide, the accumulation of which in the cell can be measured using fluorescence.
The accumulation assay was performed according to previously published methods with minor modifications.[15],[42] Briefly, a bacterial culture of S. aureus MSSA 2 cultured overnight in the presence of colistin (4 mg/L) to induce oxidative stress and activate efflux system[34] was diluted in PBS to OD600 nm = 0.6. The suspension was centrifuged (13,000 × g; 3 min), resuspended in fresh PBS, and distributed into the wells of a black 96-well microtiter plate (ThermoFisher Scientific). Samples were diluted with EtBr solution (4 μg/mL). 50 μL of the mixture was added to 50 μL of the bacterial suspension. The reaction was monitored using SpectraMax iD5Multi-Mode Microplate Reader (ex/em = 530/600 nm) every 60 s for 60 min.

MRSA 3596 = assay: Mode of antimicrobial action with erythromycin or gentamicin, ermA- and aadD-positive strain; assay type: cell-based, S. aureus; settings: for MIC, Gentamicin [1 mg/L] yes / MIC: MRSA 3596 (aadD); for MIC, Gentamicin [1 mg/L] yes: with gentamicin 1 mg/L; for MIC, erythromycin [1 mg/L] yes / MIC, erythromycin [1 mg/L] no: MRSA 3596 (ermA); for MIC, erythromycin [1 mg/L] yes: with erythromycin 1 mg/L; for MIC, erythromycin [1 mg/L] no: without erythromycin, Table 4; for MIC: Staphylococcus aureus, 24 h, read-out: MIC, Gentamicin [1 mg/L] no, without gentamicin, Table S6
Description: (§1) Erythromycin is a macrolide antibiotic that inhibits proteosynthesis by binding to the 50S subunit of the ribosome. In Staphylococcus species, resistance to erythromycin is associated with the presence of methyltransferases (encoded by erm genes) that alter the ribosomal target site. Another typical mechanism of resistance to erythromycin is the presence of an ATP-dependent efflux pump encoded by the msr(A) gene or a major facilitator superfamily (MFS) pump encoded by the lmrS gene. Both efflux pumps reduce the concentration of erythromycin in the cell below the therapeutic dose by transporting it across the membrane to the extracellular space. Another erythromycin resistance gene is the mph(C) gene, the product of which is a phosphotransferase that alters the structure of macrolide antibiotics. To elucidate the mechanism of erythromycin resistance modulation in S. aureus, further tests were performed with the strains MRSA 331 and MRSA 3596, which inactivate erythromycin via a single mechanism (ermC and ermA, respectively). […] Therefore, if the activity was not strain-specific, it would be necessary to consider the effect of the derivatives on this pump (Table 3).
Among the mechanisms of resistance to gentamicin previously described in S. aureus, the presence of enzymes that alter the structure of aminoglycosides is crucial. These enzymes can transfer nucleotides, phosphates, or acetyls to various −OH or −NH2 groups of gentamicin, preventing its subsequent interaction with the cellular target, i.e., the 30S ribosomal subunit. The bifunctional aminoglycoside-modifying enzyme with acetylation and phosphotransferase activities encoded by the gene aac(6’)/aph(2’), 4′,4″ adenyltransferase encoded by the aadD gene, and aminoglycoside O-phosphotransferase encoded by the gene aph(3′) are the most important.[37] […] For this reason, further testing continued using strains MRSA 3596 and MRSA 1584, which inactivate gentamicin only by a single mechanism (aadD and aac(6’)-aph(2’’), respectively).
(§2) Sensitization of multidrug-resistant clinical bacterial strains was performed according to ref[15]. Antibiotic cutoff concentration was chosen according to the European Committee on Antimicrobial Susceptibility Testing (EUCAST, Clinical breakpoints–bacteria, ver. 11.0). The 200 μM concentration of the derivatives was chosen as the highest test concentration. The absorbance detected at 600 nm was then used to estimate the number of viable cells after 24 h of incubation at 37 °C and 120 rpm.
(§3) Experiments were performed with the respective number of replicates indicated in each figure/table. MIC was determined as IC70. Both IC70 and IC50 values were calculated using the following nonlinear regression in the software GraphPad Prism: […]

[3] = tested on: tumor necrosis factor (TNF-α) production by RAW 264.7 stimulated by LPS; assay: Anti-inflammatory activity: TNF-α production by LPS-stimulated macrophages; assay type: cell-based, Murine; settings: Mus musculus, RAW264.7; LPS-stimulated RAW 264.7; average of four repetitions ± SEM; read-out: TNFα production IC50
Procedure: The anti-inflammatory activity of flavonoids was evaluated as their ability to decrease the production of signaling molecules that mediate inflammation, such as nitric oxide (NO), tumor necrosis factor (TNF-α), and interleukin 6 (IL-6), in LPS-stimulated macrophages.
The anti-inflammatory activity of the tested flavonoids was determined as the ability to reduce the production of nitric oxide (NO), tumor necrosis factor (TNF-α), and interleukin 6 (IL-6) by RAW 264.7 stimulated by LPS, as previously described.[39],[40] Briefly, 1 × 10^6 cells/mL was seeded into the 96-well plate (100 μL/well). After 48 h, LPS (100 ng/mL) and the samples (3–100 μM) were added to the MEM medium. After 24 h, the medium was mixed with Griess reagent (0.04 g/mL) at a 1:1 ratio. The absorbance was measured after 15 min at 540 nm. Cell viability was determined using the resazurin assay.
To determine TNF-α levels, cells were precultivated with the tested compounds for 24 h. After 2 h of incubation with LPS, the medium was diluted 1:10 with ELISA diluent. To determine the level of IL-6, cells were cultivated for 6 h with LPS and the tested compounds. Cytokine production was determined using an uncoated ELISA performed according to the manufacturer’s instructions.

[4] = tested on: Methicilin-Resistant S. aureus 331 Strain; assay: Mode of antimicrobial action with erythromycin, ermC-positive strain; assay type: cell-based; settings: for MIC, erythromycin [1 mg/L] yes / MIC, erythromycin [1 mg/L] no: MRSA 331 (ermC); for MIC, erythromycin [1 mg/L] yes: with erythromycin 1 mg/L; for MIC, erythromycin [1 mg/L] no: without erythromycin; for FIC (Fractional Inhibitory Concentration Index): MRSA 331, with erythromycin
Description: as §1, §2, §3

SMILES | IC50 [1] [µM] | efflux inhibition (ethidium bromide accumulation), in words [2] | effect (mode of action with erythromycin) (MRSA 3596; MRSA 3596) | effect (mode of action with gentamicin) (MRSA 3596; MRSA 3596) | MIC, Gentamicin [1 mg/L] yes (MRSA 3596) [µM] | MIC, erythromycin [1 mg/L] yes (MRSA 3596) [µM] | MIC, erythromycin [1 mg/L] no (MRSA 3596) [µM] | effect (mode of action with erythromycin) (MRSA 3596; MRSA 3596, listed as luteolin) | FIC (Fractional Inhibitory Concentration Index) (MRSA 3596; MRSA 3596, with erythromycin) | FIC (Fractional Inhibitory Concentration Index) (MRSA 3596; MRSA 3596, with gentamicin) | MIC (MRSA 3596) [µM] | IC50 [3] [µM] | MIC, erythromycin [1 mg/L] yes [4] [µM] | MIC, erythromycin [1 mg/L] no [4] [µM] | FIC (Fractional Inhibitory Concentration Index) [4] | accumulation of ethidium bromide compared to 100 μM CCCP ([2]; compound at 25 μM, relative to CCCP (100 μM))
O=c1cc(-c2ccc(O)c(O)c2)oc2cc(O)cc(O)c12 [compound 10, luteolin, reference compound] | 42.9 ± 3.4 | significantly better than CCCP at the same concentration (100 μM) | synergy (Fractional Inhibitory Concentration Index (FIC) < 0.5 indicates synergism) | synergy (Fractional Inhibitory Concentration Index (FIC) < 0.5 indicates synergism) | 6.7 ± 0.1 (≈ 1.92 µg/mL) | 14.3 ± 0.9 (≈ 4.09 µg/mL) | 51.1 ± 1.3 (≈ 14.6 µg/mL) | synergistic activity | 0.28 ± 0.02 | 0.13 ± 0.01 | 51.1 ± 1.3 (≈ 14.6 µg/mL) | 25.9 ± 0.3 | 31.6 ± 2.5 (≈ 9.05 µg/mL) | 28.1 ± 0.3 (≈ 8.04 µg/mL) | 1.12 ± 0.10 | –
O=c1cc(-c2ccc(O)c(O)c2)oc2c(Nc3ccc(F)cc3)c(O)cc(O)c12 [compound 11, 2-(3,4-Dihydroxyphenyl)-8-(4-fluoroanilino)-5,7-dihydroxy-4H–1-benzopyran-4-one] | 51.9 ± 3.7 | higher activity than CCCP alone | – | – | > 200 | 28.0 ± 0.5 (≈ 11.1 µg/mL) | 32.9 ± 0.6 (≈ 13 µg/mL) | – | 0.85 ± 0.03 | – | > 200 | 28.4 ± 0.2 | 57.4 ± 0.2 (≈ 22.7 µg/mL) | 57.6 ± 0.2 (≈ 22.8 µg/mL) | 1.00 ± 0.01 | comparable to 8-(4-fluoroanilino) quercetin (5)
